This series can be described thus: Cumulative drug release at 24 hours from coated stents (USP type 7 tester, porcine serum). The format is physicochemical. The following applies: stent coating of everolimus and 75:25 PLGA. The method, then:
As used herein, any measurement of drug release, for example without limitation, release rate, release duration, or substantially released, refers to the an in-vitro measurement using a United States Pharmacopeia Type VII apparatus, using porcine serum with sodium azide optionally added (0.1% w/v) at a temperature of 37° C.
All stents were cleaned by being sonicated in isopropyl alcohol. Stents were coated with a primer layer of approximately 51 μg of 75:25 PLGA (poly(D,L-lactide-co-glycolide) provided by Boehringer Ingelheim, grade RG755S) by spraying from a solution of 2 weight % polymer in 90:10 acetone:methyl isobutyl ketone (w/w). More than one pass under the coater was required to obtain the target weight of polymer on the stent. The spraying operation was carried out with a custom made spray coater equipped with a spray nozzle, a drying nozzle, and a means to rotate and translate the stent under the nozzles with the processing parameters outlined in Table 1. Subsequent to coating, all stents were baked in a forced air convection oven at 140° C. for 30 minutes. […] More than one pass under the coater was required to obtain the target weight of polymer on the stent. The spraying operation was carried out with the same coater used for the primer spraying with the following parameters outlined in Table 2. After the drug layer coating, the stents were baked in a force air convection oven at 50° C. for 1 hour. After baking the coating, the stents were crimped onto 3.0×12 mm XIENCE V catheters, placed in protective tubular coils, and then sealed in Argon filled foil pouches. The stents were not sterilized. Cumulative release of the drug everolimus at 24 hours was determined using a United States Pharmacopeia type 7 tester in porcine serum with sodium azide 0.1% (w/v) added as the dissolution media. Everolimus released into solution was determined by HPLC analysis on the amount of drug remaining on the stent. The cumulative release expressed is one minus the fractional amount of drug remaining divided by the theoretical quantity or dose of drug per stent. In this experiment, the same drug to polymer ratio and the same polymer and drug were used but the spray coating was accomplished with different solvents. In one set of stents, the solvent was 100% acetone while for other stents the solvent was a 50:50 (w/w) mixture of acetone and methyl isobutyl ketone. The cumulative release as measured of drug after 24 hours for n=3 stents is illustrated in FIG. 1.
Stents were cleaned, coated with a primer of 75/25 PLGA, and then coated with a drug layer as described in Example 1 except that the drug to polymer ratio was 1:2 (and therefore the % solids in the coating solution was 3% (w/w)). […]

Consider `CO[C@H]1C[C@@H]2CC[C@@H](C)[C@@](O)(O2)C(=O)C(=O)N2CCCC[C@H]2C(=O)O[C@H]([C@H](C)C[C@@H]2CC[C@@H](OCCO)[C@H](OC)C2)CC(=O)[C@H](C)/C=C(\C)[C@@H](O)[C@@H](OC)C(=O)[C@H](C)C[C@H](C)/C=C/C=C/C=C/1C` [everolimus], for which the “cumulative release at 24 hours” value (drug:polymer 1:1, sprayed from 50:50 (w/w) acetone:methyl isobutyl ketone, 37° C.) is “about 96%”; the “cumulative release at 24 hours” value (drug:polymer 1:1, sprayed from 100% acetone, 37° C.) is “about 23%”; the “cumulative release at 24 hours” value (drug:polymer 1:2 as printed, sprayed from 50:50 (w/w) acetone:dimethyl acetamide) was “about 42%”; the “cumulative release at 24 hours” value (drug:polymer 1:2 as printed, sprayed from 50:50 acetone:methyl isobutyl ketone) is on record as “about 83%”.

(Values after patent publication US8562669B2, “Methods of application of coatings composed of hydrophobic, high glass transition polymers with tunable drug release rates” (Abbott Cardiovascular Systems Inc., priority 2008, dated 2013).)
